This is an account of results in ChEMBL document CHEMBL4043296 (J Med Chem, 2018).

In assay [1] the target is Beta-2 adrenergic receptor (Homo sapiens, UniProt P07550). Nature of the assay: Displacement of [3H]CGP12177 from human recombinant beta2 adrenergic receptor expressed in HEK293 cell membranes after 90 mins by beta counting method.
Assay [2] deals with Beta-1 adrenergic receptor (Homo sapiens, UniProt P08588). The assay can be described thus: Displacement of [3H]CGP12177 from human recombinant beta1 adrenergic receptor expressed in HEK293 cell membranes after 90 mins by beta counting method.
Chain of Beta-1 adrenergic receptor (P08588 whole entry): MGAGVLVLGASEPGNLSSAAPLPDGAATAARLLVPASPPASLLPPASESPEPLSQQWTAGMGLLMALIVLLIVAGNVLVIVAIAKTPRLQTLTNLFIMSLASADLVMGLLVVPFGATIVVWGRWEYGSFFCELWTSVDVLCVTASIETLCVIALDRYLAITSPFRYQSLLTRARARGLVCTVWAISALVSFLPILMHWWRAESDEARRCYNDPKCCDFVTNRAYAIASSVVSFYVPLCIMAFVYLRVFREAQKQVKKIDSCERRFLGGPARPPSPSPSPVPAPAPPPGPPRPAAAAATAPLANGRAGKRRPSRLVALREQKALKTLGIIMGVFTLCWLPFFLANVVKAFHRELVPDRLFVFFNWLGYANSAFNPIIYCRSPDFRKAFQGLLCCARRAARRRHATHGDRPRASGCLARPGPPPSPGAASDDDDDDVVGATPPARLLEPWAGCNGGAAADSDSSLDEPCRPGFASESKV
In assay [3] the target is Sodium-dependent serotonin transporter (Rattus norvegicus, UniProt P31652). The assay can be described thus: Displacement of [3H]-citalopram from SERT in Sprague-Dawley rat midbrain after 60 mins by scintillation counting method.
Chain of Sodium-dependent serotonin transporter (P31652 whole entry): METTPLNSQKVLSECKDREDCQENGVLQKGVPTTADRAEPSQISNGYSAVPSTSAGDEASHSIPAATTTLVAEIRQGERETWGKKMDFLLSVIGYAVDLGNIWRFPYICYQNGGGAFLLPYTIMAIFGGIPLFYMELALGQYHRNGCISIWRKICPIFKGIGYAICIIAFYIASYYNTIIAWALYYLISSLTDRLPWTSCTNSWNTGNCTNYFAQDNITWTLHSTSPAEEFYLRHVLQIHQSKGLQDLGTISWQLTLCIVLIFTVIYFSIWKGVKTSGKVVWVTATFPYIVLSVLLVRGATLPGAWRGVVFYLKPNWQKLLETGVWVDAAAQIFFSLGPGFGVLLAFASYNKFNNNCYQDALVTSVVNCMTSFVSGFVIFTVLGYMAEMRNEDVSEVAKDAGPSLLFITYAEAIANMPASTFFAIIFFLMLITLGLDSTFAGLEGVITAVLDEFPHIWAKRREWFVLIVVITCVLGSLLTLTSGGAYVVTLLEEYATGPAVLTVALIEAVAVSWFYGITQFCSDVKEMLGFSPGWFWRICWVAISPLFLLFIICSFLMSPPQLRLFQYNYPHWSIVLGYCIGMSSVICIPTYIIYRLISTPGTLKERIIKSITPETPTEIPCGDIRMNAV
The target of assay [4] is T1, D(4) dopamine receptor (Homo sapiens, UniProt P21917).
T1 sequence (P21917 whole entry): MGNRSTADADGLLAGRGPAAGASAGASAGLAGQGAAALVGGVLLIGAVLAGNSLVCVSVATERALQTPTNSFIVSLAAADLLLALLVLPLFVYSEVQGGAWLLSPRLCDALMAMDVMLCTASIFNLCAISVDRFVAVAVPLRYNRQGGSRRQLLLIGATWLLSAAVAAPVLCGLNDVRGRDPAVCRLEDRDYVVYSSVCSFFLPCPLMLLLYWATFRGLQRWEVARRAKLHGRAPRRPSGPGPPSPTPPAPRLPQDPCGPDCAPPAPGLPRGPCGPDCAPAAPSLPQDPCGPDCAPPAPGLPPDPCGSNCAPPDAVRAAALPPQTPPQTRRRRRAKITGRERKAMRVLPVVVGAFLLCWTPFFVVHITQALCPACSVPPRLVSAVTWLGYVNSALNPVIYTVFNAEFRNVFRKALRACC
Nature of the assay: Displacement of [3H]N-methylspiperone from human dopamine D4 receptor expressed in HEK293 cell membranes after 1 hr by scintillation counting method.

Assay [5] has as its target T1, D(4) dopamine receptor. Nature of the assay: Antagonist activity at human SP/Myc epitope-tagged dopamine D4 receptor expressed in HEK293T cells assessed as inhibition of dopamine-induced mVenus-fused beta-arrestin2 recruitment preincubated for 15 mins followed by dopamine induction measured after 2 mins by BRET assay. The class given is cell-based, HEK-293T.
For another assay, the target named is D(2) dopamine receptor (Homo sapiens, UniProt P14416). The assay can be described thus: Displacement of [3H]N-methylspiperone from human dopamine D2 receptor expressed in HEK293 cell membranes after 1 hr by scintillation counting method.
Chain of D(2) dopamine receptor (P14416 whole entry, the tested form may be a part): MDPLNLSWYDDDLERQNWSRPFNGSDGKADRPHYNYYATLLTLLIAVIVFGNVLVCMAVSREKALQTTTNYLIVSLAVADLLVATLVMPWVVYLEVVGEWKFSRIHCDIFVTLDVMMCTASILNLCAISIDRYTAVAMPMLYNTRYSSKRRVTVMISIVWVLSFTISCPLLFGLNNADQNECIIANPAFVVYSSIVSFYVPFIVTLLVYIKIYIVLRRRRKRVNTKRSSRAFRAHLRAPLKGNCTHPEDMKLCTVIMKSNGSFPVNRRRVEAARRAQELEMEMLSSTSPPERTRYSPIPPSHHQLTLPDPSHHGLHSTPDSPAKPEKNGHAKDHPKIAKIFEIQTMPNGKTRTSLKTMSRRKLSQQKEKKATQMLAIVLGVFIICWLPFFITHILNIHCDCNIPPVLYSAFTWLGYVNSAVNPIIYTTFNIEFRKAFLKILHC
Assay [6] addresses T1, D(4) dopamine receptor. The assay can be described thus: Antagonist activity at human SP/Myc epitope-tagged dopamine D4 receptor expressed in HEK293T cells assessed as inhibition of dopamine-induced RLuc8-fused Galphai1 activation preincubated for 15 mins followed by dopamine induction measured after 2 mins by BRET assay. The assay is classed as cell-based, HEK-293T.
The species entered for a further assay is Homo sapiens. Nature of the assay: Selectivity ratio of Ki for human dopamine D2 receptor to Ki for human dopamine D4 receptor.
Assay [7] deals with Sigma non-opioid intracellular receptor 1 (Cavia porcellus, UniProt Q60492). Nature of the assay: Displacement of [3H](+)-pentazocine from sigma1 receptor in Hartley guinea pig brain cortex after 120 mins by scintillation counting method.
Chain of Sigma non-opioid intracellular receptor 1 (Q60492 whole entry): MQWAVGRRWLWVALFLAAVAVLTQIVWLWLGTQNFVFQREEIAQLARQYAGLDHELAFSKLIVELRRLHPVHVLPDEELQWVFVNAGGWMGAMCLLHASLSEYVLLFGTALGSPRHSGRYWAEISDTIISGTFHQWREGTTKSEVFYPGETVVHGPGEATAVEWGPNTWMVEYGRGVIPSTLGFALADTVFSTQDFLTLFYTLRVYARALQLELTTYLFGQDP
A further assay deals with D(3) dopamine receptor (Homo sapiens, UniProt P35462). Nature of the assay: Displacement of [3H]N-methylspiperone from human dopamine D3 receptor expressed in HEK293 cell membranes after 1 hr by scintillation counting method.
Chain of D(3) dopamine receptor (P35462 whole entry): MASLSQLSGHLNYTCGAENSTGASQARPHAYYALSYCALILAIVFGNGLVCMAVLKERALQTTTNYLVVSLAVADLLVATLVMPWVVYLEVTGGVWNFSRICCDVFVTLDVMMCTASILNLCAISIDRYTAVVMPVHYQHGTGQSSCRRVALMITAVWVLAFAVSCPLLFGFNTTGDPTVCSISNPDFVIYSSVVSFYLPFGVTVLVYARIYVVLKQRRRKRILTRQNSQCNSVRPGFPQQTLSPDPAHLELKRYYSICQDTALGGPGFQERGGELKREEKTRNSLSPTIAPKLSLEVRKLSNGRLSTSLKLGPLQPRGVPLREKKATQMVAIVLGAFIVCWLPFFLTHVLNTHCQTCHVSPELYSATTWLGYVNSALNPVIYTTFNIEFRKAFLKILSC
Assay [8] has as its target Sodium-dependent dopamine transporter (Rattus norvegicus, UniProt P23977). Nature of the assay: Displacement of [3H]WIN 35,428 from DAT in Sprague-Dawley rat striatum after 120 mins by scintillation counting method.
The target in assay [9] is T2, Alpha-1D adrenergic receptor (Homo sapiens, UniProt P25100).
T2 sequence (P25100 whole entry): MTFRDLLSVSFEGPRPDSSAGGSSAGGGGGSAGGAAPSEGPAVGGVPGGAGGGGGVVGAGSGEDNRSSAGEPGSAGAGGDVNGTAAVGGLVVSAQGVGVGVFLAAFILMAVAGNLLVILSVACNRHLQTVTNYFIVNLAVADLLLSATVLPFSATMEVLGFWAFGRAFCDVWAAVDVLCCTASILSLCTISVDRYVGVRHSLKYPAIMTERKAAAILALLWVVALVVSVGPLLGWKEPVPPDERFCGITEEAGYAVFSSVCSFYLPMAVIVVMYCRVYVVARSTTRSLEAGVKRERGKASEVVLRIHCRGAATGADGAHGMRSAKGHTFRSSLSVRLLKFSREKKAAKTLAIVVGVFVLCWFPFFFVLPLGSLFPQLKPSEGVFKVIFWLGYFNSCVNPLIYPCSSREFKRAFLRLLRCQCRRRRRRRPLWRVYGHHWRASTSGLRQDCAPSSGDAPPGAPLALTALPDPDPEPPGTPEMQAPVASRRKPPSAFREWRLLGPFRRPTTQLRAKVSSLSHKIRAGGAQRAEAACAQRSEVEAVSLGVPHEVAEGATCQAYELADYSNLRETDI
Nature of the assay: Displacement of [3H]prazosin from human recombinant alpha-1D adrenergic receptor expressed in CHO cell membranes after 30 mins by liquid scintillation counting method.

For assay [10], the target named is T3, Alpha-1B adrenergic receptor (Homo sapiens, UniProt P35368).
T3 sequence (P35368 whole entry): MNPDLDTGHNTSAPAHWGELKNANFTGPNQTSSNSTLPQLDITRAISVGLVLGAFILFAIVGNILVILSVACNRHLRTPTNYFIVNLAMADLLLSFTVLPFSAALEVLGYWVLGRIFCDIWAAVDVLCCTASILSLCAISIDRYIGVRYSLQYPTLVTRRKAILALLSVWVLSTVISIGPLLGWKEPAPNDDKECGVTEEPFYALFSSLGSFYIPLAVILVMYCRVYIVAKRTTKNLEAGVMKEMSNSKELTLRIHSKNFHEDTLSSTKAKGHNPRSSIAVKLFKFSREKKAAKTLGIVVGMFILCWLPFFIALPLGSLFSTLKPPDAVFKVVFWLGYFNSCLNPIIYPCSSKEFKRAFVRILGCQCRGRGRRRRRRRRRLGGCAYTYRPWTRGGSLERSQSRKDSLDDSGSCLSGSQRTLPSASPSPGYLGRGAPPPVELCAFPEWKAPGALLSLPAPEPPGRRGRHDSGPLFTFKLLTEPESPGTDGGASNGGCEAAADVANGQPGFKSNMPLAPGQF
Nature of the assay: Displacement of [3H]prazosin from human recombinant alpha-1B adrenergic receptor expressed in CHO cell membranes after 30 mins by liquid scintillation counting method.

For assay [11], the target named is T4, Alpha-1A adrenergic receptor (Homo sapiens, UniProt P35348).
T4 sequence (P35348 whole entry): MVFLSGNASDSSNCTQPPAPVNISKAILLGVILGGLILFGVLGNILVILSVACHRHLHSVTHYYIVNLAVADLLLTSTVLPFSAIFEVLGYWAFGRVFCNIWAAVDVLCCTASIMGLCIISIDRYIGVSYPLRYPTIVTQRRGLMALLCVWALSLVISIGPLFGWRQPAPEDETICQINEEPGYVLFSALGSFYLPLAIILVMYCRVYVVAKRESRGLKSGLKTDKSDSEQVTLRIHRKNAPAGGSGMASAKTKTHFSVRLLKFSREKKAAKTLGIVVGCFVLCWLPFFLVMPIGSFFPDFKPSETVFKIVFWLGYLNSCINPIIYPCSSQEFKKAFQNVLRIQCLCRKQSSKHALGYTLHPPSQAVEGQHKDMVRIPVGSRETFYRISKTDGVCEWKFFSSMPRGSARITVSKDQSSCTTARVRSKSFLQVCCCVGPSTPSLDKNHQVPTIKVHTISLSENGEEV
The assay can be described thus: Displacement of [3H]prazosin from human recombinant alpha-1A adrenergic receptor expressed in CHO cell membranes after 30 mins by liquid scintillation counting method.

Assay [12] has as its target T5, Muscarinic acetylcholine receptor M1 (Homo sapiens) (UniProt P11229).
T5 sequence (whole entry): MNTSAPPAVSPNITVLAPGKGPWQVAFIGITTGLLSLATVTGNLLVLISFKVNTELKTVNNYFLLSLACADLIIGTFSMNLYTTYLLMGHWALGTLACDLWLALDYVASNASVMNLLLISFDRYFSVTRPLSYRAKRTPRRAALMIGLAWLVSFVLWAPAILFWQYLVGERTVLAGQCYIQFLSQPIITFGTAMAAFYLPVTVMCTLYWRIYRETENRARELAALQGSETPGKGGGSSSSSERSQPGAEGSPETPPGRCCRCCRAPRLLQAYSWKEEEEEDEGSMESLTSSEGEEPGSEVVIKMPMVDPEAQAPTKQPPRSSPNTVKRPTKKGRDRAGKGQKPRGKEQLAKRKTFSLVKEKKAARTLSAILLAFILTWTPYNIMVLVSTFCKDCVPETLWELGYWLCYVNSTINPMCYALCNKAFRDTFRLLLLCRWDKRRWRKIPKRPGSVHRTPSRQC
The assay can be described thus: Antagonist activity at human SP/Myc epitope-tagged muscarinic M1 receptor expressed in HEK293T cells assessed as inhibition of carbachol-induced mVenus-fused beta-arrestin2 recruitment preincubated for 15 mins followed by carbachol induction measured after 2 mins by BRET assay. The conditions noted are these: HEK-293T. The assay is classed as cell-based.

For assay [13], the target named is T6, Muscarinic acetylcholine receptor M4 (Homo sapiens) (UniProt P08173).
T6 sequence (whole entry): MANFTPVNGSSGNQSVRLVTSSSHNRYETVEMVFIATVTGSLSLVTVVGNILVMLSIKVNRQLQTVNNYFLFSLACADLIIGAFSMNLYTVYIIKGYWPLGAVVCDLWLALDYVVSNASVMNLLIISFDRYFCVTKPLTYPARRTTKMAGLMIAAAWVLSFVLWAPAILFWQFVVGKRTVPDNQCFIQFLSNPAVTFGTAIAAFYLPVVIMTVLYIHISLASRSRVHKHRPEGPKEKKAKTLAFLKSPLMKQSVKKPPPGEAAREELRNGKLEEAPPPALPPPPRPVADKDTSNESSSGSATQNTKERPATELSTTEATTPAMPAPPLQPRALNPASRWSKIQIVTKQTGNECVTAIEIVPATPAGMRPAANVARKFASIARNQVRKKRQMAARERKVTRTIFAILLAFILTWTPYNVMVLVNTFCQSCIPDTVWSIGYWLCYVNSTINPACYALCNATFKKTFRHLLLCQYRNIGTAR
The assay can be described thus: Antagonist activity at human SP/Myc epitope-tagged muscarinic M4 receptor expressed in HEK293T cells assessed as inhibition of carbachol-induced mVenus-fused beta-arrestin2 recruitment preincubated for 15 mins followed by carbachol induction measured after 2 mins by BRET assay. The assay is classed as cell-based. The following applies: HEK-293T.

Assay [14] has as its target T6, Muscarinic acetylcholine receptor M4 (Homo sapiens). The assay can be described thus: Antagonist activity at human SP/Myc epitope-tagged muscarinic M4 receptor expressed in HEK293T cells assessed as inhibition of carbachol-induced RLuc8-fused Galphaq activation preincubated for 15 mins followed by carbachol induction measured after 2 mins by BRET assay. The class given is cell-based. The following applies: HEK-293T.

The target of assay [15] is T5, Muscarinic acetylcholine receptor M1 (Homo sapiens). The assay can be described thus: Antagonist activity at human SP/Myc epitope-tagged muscarinic M1 receptor expressed in HEK293T cells assessed as inhibition of carbachol-induced RLuc8-fused Galphaq activation preincubated for 15 mins followed by carbachol induction measured after 2 mins by BRET assay. The class given is cell-based. The conditions noted are these: HEK-293T.

Chain of Sodium-dependent dopamine transporter (P23977 whole entry): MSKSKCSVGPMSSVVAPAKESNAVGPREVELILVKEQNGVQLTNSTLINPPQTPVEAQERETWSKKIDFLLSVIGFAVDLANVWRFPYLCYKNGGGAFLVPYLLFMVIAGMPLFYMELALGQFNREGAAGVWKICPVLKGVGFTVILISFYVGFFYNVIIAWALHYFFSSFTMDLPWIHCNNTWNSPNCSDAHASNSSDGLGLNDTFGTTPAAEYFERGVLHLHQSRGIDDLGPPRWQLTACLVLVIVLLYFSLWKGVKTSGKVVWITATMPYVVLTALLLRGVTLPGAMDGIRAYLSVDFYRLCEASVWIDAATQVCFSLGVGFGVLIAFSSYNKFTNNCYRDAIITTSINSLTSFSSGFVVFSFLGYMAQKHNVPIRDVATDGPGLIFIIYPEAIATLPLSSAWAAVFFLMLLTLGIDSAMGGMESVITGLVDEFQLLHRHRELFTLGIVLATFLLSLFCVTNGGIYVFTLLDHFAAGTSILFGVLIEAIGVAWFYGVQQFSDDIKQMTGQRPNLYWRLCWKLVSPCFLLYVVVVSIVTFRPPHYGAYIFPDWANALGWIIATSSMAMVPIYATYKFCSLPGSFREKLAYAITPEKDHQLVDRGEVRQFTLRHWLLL
Chain of Beta-2 adrenergic receptor (P07550 whole entry): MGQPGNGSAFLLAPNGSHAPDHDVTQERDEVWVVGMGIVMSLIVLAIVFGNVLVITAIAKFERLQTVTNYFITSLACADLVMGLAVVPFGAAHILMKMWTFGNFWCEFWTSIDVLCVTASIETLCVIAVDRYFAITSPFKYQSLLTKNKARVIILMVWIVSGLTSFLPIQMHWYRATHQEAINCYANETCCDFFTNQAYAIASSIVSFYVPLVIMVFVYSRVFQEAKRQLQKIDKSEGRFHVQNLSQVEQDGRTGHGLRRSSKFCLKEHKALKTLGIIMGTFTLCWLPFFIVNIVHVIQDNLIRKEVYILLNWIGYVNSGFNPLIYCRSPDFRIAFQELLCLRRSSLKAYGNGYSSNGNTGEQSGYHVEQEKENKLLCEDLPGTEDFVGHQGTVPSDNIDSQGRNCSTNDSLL

With `CCCCC1CCN(CCCN2C(=O)CCc3ccccc32)CC1`, the Ki was 43700 nM in assay [1]; 47900 nM in assay [2]; 8910 nM in assay [3]; 0.977 nM at D(4) dopamine receptor [4]; 676 nM at D(2) dopamine receptor; 7.24 nM in [7]. The inhibition constant (Ki) on D(3) dopamine receptor is 617 nM; in [8] it was 3390 nM; in [9] it was 1000 nM; in assay [10] it was 776 nM; in [11], 437 nM. The half-inhibitory concentration (IC50) at D(4) dopamine receptor [5] was 6.03 nM; on D(4) dopamine receptor [6], 117 nM. The Ratio Ki in the assay listed under Homo sapiens is 691.

For `CN1[C@@H]2C[C@@H](OC(=O)[C@H](CO)c3ccccc3)C[C@H]1[C@@H]1O[C@H]12`, the Imax in assay [12] amounted to 76%; in assay [13], 73%; in [14] it was 79%; in [15] it was 71%.
